How the values were obtained:
[1] = system: native stop codons (TAA, TAG, TGA), 3′UTR ribosome density; experiment: Ribosome footprint profiling of transcriptome-wide 3′UTRs, HEK293 cells; format: cell-based, human
Text: The question was raised whether ACE-tRNAs that show efficacious suppression of premature stop codons may also induce global readthrough of native stop codons. To address this potential “off target” suppression, a transcriptome-wide quantitative profile of actively engaged ribosomes on all cellular transcripts was obtained by generating libraries of ribosome footprints from HEK293 cells expressing exogenous ACE-tRNAs or a control mock plasmid (puc57GG). Streptomycin was removed from the growth media to prevent readthrough artifacts. For comparison, the ribosome footprint library was also generated from cells in the presence or absence of G418 (150 μM, 48 h). […] Only transcripts with a minimum threshold of 5 RPKM in the coding sequence and 0.5 RPKM in the 3′UTR in two replicate libraries were included for the quantitation comparison (254 transcripts in G418 and 495-748 transcripts in ACE-tRNAs). […] ACE-tRNAs examined here had no detectable change of 3′UTR ribosome density with the exception of ACE-tRNA Gln-UAA and Arg-UGA which induced approximately a 2-fold increase in 3′UTR ribosome density for the cognate stop codon complimentary to the ACE-tRNA anticodon. Understanding the biological significance of 2-fold readthrough of protein stops will require further study, but this effect is substantially lower compared to the 100- to 1000-fold suppression of PTC for the same ACE-tRNA.
Multiple in-frame stop codons are frequently found at the end of genes 37-39 and may cause a minor difference in overall 3′UTR ribosome density for ACE-tRNA and G418 treatment. Ribosome occupancy was examined at each nucleotide in the 3′UTR within a 60 nt region downstream of the stop codons. […] Reads were normalized per total million-mapped reads, compared against control cells, and reported as a log 2-fold change as in panel A. More than 5,200 transcripts were mapped to at least 1 footprint in the region of interest. […] Taken together, the ribosome profiling data argue that efficiency of native stop codon suppression by ACE-tRNAs is generally low, and markedly less than the level of PTC suppression.
Ribosome Footprint Profiling Library preparation. HEK293 cells transiently transfected with ACE-tRNAs and control plasmid (puc57GG) were grown in standard grown media in the absence of Pen-Strep for 48 h. Libraries were prepared as described^55, with a few modifications. Briefly, cells were rapidly cooled by addition of ice-cold PBS, lysed in lysis buffer (20 mM Tris-HCl/pH7.4, 150 mM NaCl, 5 mM MgCl2, 1 mM DTT, 1% (v/v) Triton X-100, and 25 U ml^−1 Turbo DNase I) for 10 min on ice, and triturated with ten times through a 26-G needle. […]

[2] = Phase 3 clinical trials; cited from earlier work
NLuc-UGA PTC reporter = experiment: NanoLuc nonsense reporter screen of ACE-tRNA, UGA (TGA) PTC, HEK293 cells; format: cell-based, human; details: t-stem variants, luciferase 24 hours post-transfection, HEK cells
Text: Several different nonsense mutations cause CF, thus underlying roughly 10% of all CF disease. FIG. 7. These cases are concentrated into […] specific genetic lesions: E60X, R75X, G542X, R553X, Q890X, Y1092X, R1158X, R1162X and W1282X. We propose that it should be feasible, with the right approach, to screen existing human tRNA sequences for modification and tolerance to anti-codon editing. To this end, roughly 144 ACE-tRNAs were candidates to test for those that could be used to promote the repair of the disease causative nonsense codon and the expression of the full-length protein. Specifically, using the scheme described in FIG. 11, tRNA libraries were generated to identify novel tRNA sequences that encode for ACE tRNA with the ability to repair the top CF causative nonsense mutations. Specifically, 10 ng of annealed oligos encoding the ACE-tRNAs were combined with 50 ng of NanoLuc reporter plasmid, 1 ul 10× CutSmart Buffer (NEB), 1 ul T4 ligase (NEB), 10 mM ATP and 1 ul BbsI (NEB) and cycled in a thermocycler as described in FIG. 11. 1 ul of the reaction was transformed into competent E. coli and the transformants were plated on ampicillin agar plates. […]
Screening studies were first performed to identify the best ACE-tRNA Candidates from tryptophan and glycine. […] Plates were read on a SpectraMax i3 (Molecular Devices). […]

CN[C@@H]1[C@@H](O)[C@@H](O[C@@H]2[C@@H](O)[C@H](O[C@H]3O[C@H]([C@@H](C)O)[C@@H](O)[C@H](O)[C@H]3N)[C@@H](N)C[C@H]2N)OC[C@]1(C)O [G418, reference compound]
effect on transcriptome-wide 3′UTR ribosome density ([1]; G418 150 μM, 48 h, ACE-tRNAs transiently transfected): no observable effect on transcriptome-wide 3′UTR ribosome density
ribosome occupancy in the early region of 3′UTR downstream of stop codons ([1]; per nucleotide, -35 to +65 nt): no observable change of ribosome occupancy

O=C(O)c1cccc(-c2noc(-c3ccccc3F)n2)c1 [Ataluren]
efficacy in patient populations [2]: unexpectedly low efficacy

B1: TS-10 52-62 G-C: t-stem mutant of Trpchr17.tRNA 39, FIG. 12B, SEQ ID NO: 589 (nucleic acid)
chain: GACCUCGUGGCGCAACGGUUAGCGCGUCUGACUUCAGAUCAGAAGGCUCCGGGUUCGAAUCCCGGCGGGGUCA
modifications: expressed or natural sequence
increase of suppression activity relative to Trpchr17.trna39 (NLuc-UGA PTC reporter): ~250%

B2: TS-38 52-62 G-C: t-stem variant of Trpchr17.trna39, SEQ ID NO: 3 (nucleic acid)
chain: GGCCUCGUGGCGCAACGGUAGCGCGUCUGACUUCAGAUCAGAAGGUUCCGGGUUCAAAUCCCGGCGGGGUCA
modifications: expressed or natural sequence
increase of suppression activity relative to Trpchr17.trna39 (NLuc-UGA PTC reporter): roughly 250%

From US12559749B2, “Methods of rescuing stop codons via genetic reassignment with ACE-tRNA” (UNIVERSITY OF IOWA RESEARCH FOUNDATION, priority 2017, dated 2026)
